Data on 14 molecules can be found in US20250115600A1, “COVALENT MODIFIERS OF AKT1 AND USES THEREOF” (Terremoto Biosciences, Inc., priority 2022, published 2025).

Experiment in all cases: Live cell target engagement (NanoBRET) in HEK293 cells
Common to all, as to assay type: cell-based
For orientation: In BRET a luciferase serves as donor, and the signal depends on an acceptor being close.

For one assay, the target named is AKT1 E17K (Homo sapiens (Human), UniProt P31749, E17K). The settings on record: for IC50: HEK293, 2 hours at 37° C.
For the next assay, the target named is AKT1 WT (Homo sapiens (Human), UniProt P31749). The following applies: HEK293, 2 hours at 37° C.
The target of a further assay is AKT2 (Homo sapiens (Human), UniProt P31751). The following applies: HEK293, 2 hours at 37° C.
Sequence of AKT2 (P31751 whole entry): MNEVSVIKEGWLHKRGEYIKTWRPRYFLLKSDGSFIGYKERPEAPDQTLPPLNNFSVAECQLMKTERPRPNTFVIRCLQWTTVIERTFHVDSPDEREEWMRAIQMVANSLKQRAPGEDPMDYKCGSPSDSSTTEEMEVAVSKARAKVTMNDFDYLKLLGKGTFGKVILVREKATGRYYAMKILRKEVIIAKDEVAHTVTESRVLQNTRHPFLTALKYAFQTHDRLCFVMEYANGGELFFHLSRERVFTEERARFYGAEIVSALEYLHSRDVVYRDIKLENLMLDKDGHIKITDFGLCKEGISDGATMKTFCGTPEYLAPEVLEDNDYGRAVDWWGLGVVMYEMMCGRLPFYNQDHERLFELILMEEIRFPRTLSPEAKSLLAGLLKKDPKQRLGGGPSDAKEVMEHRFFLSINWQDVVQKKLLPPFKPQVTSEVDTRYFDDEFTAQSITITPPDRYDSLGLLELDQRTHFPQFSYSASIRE

Sequence of AKT1 E17K (P31749 whole entry E17K): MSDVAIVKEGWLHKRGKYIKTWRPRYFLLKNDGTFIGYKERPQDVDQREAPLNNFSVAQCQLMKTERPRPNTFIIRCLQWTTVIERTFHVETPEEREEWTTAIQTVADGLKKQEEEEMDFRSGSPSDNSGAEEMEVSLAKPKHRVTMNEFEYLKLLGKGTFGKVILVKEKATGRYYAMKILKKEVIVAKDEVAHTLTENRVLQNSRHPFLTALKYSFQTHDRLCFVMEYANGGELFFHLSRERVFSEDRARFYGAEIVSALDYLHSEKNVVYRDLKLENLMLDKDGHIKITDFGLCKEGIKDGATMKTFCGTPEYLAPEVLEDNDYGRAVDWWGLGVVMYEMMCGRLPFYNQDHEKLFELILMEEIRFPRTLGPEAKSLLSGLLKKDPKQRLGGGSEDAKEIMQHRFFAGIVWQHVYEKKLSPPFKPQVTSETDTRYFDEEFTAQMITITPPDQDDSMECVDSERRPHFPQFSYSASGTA
Sequence of AKT1 WT (P31749 whole entry): as the sequence (P31749 whole entry E17K) above, with K17E counted along it

Consider `Nc1ncccc1-c1nc2cccnc2n1-c1ccc(CNC(=O)c2ccc(O)c(C=O)c2)cc1` [Compound 83, N-({4-[2-(2-aminopyridin-3-yl)imidazo[4,5-b]pyridin-3-yl]phenyl}methyl)-3-formyl-4-hydroxybenzamide], for which the “AKT1 E17K IC50: Selectivity vs AKT1 WT” value at AKT1 E17K was found to be 10. The “AKT1 E17K IC50: Selectivity vs AKT2” value at AKT1 E17K is recorded as 99. Moreover, the IC50 (commonly the concentration needed to halve the response being measured) at AKT1 E17K is < 100 nM; at AKT1 WT it was 100 to 500 nM; on AKT2, > 500 nM.

As to `Nc1ncccc1-c1nc2cccnc2n1-c1ccc(CNC(=O)c2ccc(C=O)c(O)c2)cc1` [Compound 84, N-({4-[2-(2-aminopyridin-3-yl)imidazo[4,5-b]pyridin-3-yl]phenyl}methyl)-4-formyl-3-hydroxybenzamide], on AKT1 E17K, the “AKT1 E17K IC50: Selectivity vs AKT1 WT” value amounted to 0.22, the “AKT1 E17K IC50: Selectivity vs AKT2” value came to 4.8 and the IC50 was > 500 nM. Moreover, the half-inhibitory concentration (IC50) at AKT1 WT fell in the range of 100 to 500 nM. The IC50 at AKT2 was > 500 nM.

`Nc1ncccc1-c1nc2ccc(-c3ccccc3)nc2n1-c1ccc(CNC(=O)c2ccc(C=O)c(O)c2F)cc1` [Compound 85, N-({4-[2-(2-aminopyridin-3-yl)-5-phenylimidazo[4,5-b]pyridin-3-yl]phenyl}methyl)-2-fluoro-4-formyl-3-hydroxybenzamide]: the “AKT1 E17K IC50: Selectivity vs AKT1 WT” value on AKT1 E17K was found to be 1.3. The “AKT1 E17K IC50: Selectivity vs AKT2” value at AKT1 E17K was 6.5. In addition, the IC50 is < 100 nM at AKT1 E17K, < 100 nM at AKT1 WT and 100 to 500 nM at AKT2.

In the case of `Nc1ncccc1-c1nc2cccnc2n1-c1ccc(CCC(=O)Nc2ccc(C=O)c(O)c2)cc1` [Compound 86, 3-(4-(2-(2-aminopyridin-3-yl)-3H-imidazo[4,5-b]pyridin-3-yl)phenyl)-N-(4-formyl-3-hydroxyphenyl)propanamide], the “AKT1 E17K IC50: Selectivity vs AKT1 WT” value at AKT1 E17K came to 25. Further, the “AKT1 E17K IC50: Selectivity vs AKT2” value at AKT1 E17K worked out at 74. Moreover, the half-inhibitory concentration (IC50) against AKT1 E17K was < 100 nM; at AKT1 WT it was > 500 nM; against AKT2, > 500 nM.

For the molecule `Nc1ncccc1-c1nc2ccc(-c3ccccc3)nc2n1-c1ccc(CNc2cc(-c3ccc(C=O)c(O)c3)ccn2)cc1` [Compound 87, 4-(2-((4-(2-(2-aminopyridin-3-yl)-5-phenyl-3H-imidazo[4,5-b]pyridin-3-yl)benzyl)amino)pyridin-4-yl)-2-hydroxybenzaldehyde], on AKT1 E17K, the “AKT1 E17K IC50: Selectivity vs AKT1 WT” value was 0.72, the “AKT1 E17K IC50: Selectivity vs AKT2” value is recorded as 1.6 and the concentration for half-maximal inhibition (IC50) is > 500 nM. Also, the half-inhibitory concentration (IC50) on AKT1 WT is > 500 nM. Moreover, the concentration for half-maximal inhibition (IC50) on AKT2 is > 500 nM.

`Nc1ncccc1-c1nc2ccc(-c3cccnc3)nc2n1-c1ccc(CNCCc2ccc(C=O)c(O)c2F)cc1` [Compound 88, 4-(2-((4-(2-(2-aminopyridin-3-yl)-5-(pyridin-3-yl)-3H-imidazo[4,5-b]pyridin-3-yl)benzyl)amino)ethyl)-3-fluoro-2-hydroxybenzaldehyde]: the “AKT1 E17K IC50: Selectivity vs AKT1 WT” value on AKT1 E17K came out at 3.9. The “AKT1 E17K IC50: Selectivity vs AKT2” value at AKT1 E17K worked out at 55. In addition, the results for the concentration for half-maximal inhibition (IC50) against AKT1 E17K, against AKT1 WT and against AKT2 were < 100 nM, < 100 nM and 100 to 500 nM, respectively.

For `CC(=O)Nc1c(C=O)ccc(CCNCc2ccc(-n3c(-c4cccnc4N)nc4cccnc43)cc2)c1F` [Compound 89, N-(3-{2-[({4-[2-(2-aminopyridin-3-yl)imidazo[4,5-b]pyridin-3-yl]phenyl}methyl)amino]ethyl}-2-fluoro-6-formylphenyl)acetamide], on AKT1 E17K, the “AKT1 E17K IC50: Selectivity vs AKT1 WT” value is 0.14. Moreover, the “AKT1 E17K IC50: Selectivity vs AKT2” value at AKT1 E17K was determined as 2.1. Also, the values for the IC50 on AKT1 E17K, on AKT1 WT and on AKT2 were > 500 nM, 100 to 500 nM and > 500 nM, respectively.

On to `CC(=O)Nc1c(C=O)ccc(CCNCc2ccc(-n3c(-c4cccnc4N)nc4ccc(-c5ccccc5)nc43)cc2)c1F` [Compound 90, N-(3-{2-[({4-[2-(2-aminopyridin-3-yl)-5-phenylimidazo[4,5-b]pyridin-3-yl]phenyl}methyl)amino]ethyl}-2-fluoro-6-formylphenyl)acetamide], for which, at AKT1 E17K, the “AKT1 E17K IC50: Selectivity vs AKT1 WT” value was found to be 0.65, the “AKT1 E17K IC50: Selectivity vs AKT2” value is recorded as 1.6 and the IC50 was < 100 nM. The IC50 at AKT1 WT was < 100 nM. At AKT2, the half-inhibitory concentration (IC50) is < 100 nM.

Take `C[C@H](NCCc1ccc(O)c(C=O)c1)c1ccc(-n2c(-c3cccnc3N)nc3ccc(-c4ccccc4)nc32)cc1` [Compound 92, 5-(2-{[(1S)-1-{4-[2-(2-aminopyridin-3-yl)-5-phenylimidazo[4,5-b]pyridin-3-yl]phenyl}ethyl]amino}ethyl)-2-hydroxybenzaldehyde]: on AKT1 E17K, the “AKT1 E17K IC50: Selectivity vs AKT1 WT” value worked out at 0.26, the “AKT1 E17K IC50: Selectivity vs AKT2” value came to 0.75 and the half-inhibitory concentration (IC50) lay within 100 to 500 nM. The IC50 on AKT1 WT fell in the range of 100 to 500 nM. The molecule also had a half-maximal inhibitory concentration (IC50) against AKT2 of 100 to 500 nM.

Take `Nc1ncccc1-c1nc2cccnc2n1-c1ccc(CNC(=O)Cc2ccc(C=O)c(O)c2F)cc1` [Compound 93, N-({4-[2-(2-aminopyridin-3-yl)imidazo[4,5-b]pyridin-3-yl]phenyl}methyl)-2-(2-fluoro-4-formyl-3-hydroxyphenyl)acetamide]: at AKT1 E17K, the “AKT1 E17K IC50: Selectivity vs AKT1 WT” value came to 3.9, the “AKT1 E17K IC50: Selectivity vs AKT2” value amounted to 50 and the half-maximal inhibitory concentration (IC50) is < 100 nM. Moreover, the IC50 against AKT1 WT lay within 100 to 500 nM. Also, the half-inhibitory concentration (IC50) against AKT2 is > 500 nM.

For the molecule `Nc1ncccc1-c1nc2cccnc2n1-c1ccc(CNCCc2ccc(C=O)c(O)c2F)cc1` [Compound 95, 4-(2-((4-(2-(2-aminopyridin-3-yl)-3H-imidazo[4,5-b]pyridin-3-yl)benzyl)amino)ethyl)-3-fluoro-2-hydroxybenzaldehyde], at AKT1 E17K, the “AKT1 E17K IC50: Selectivity vs AKT1 WT” value worked out at 1.8. Moreover, on AKT1 E17K, the “AKT1 E17K IC50: Selectivity vs AKT2” value was 2.5. Besides, the concentration for half-maximal inhibition (IC50) on AKT1 E17K, against AKT1 WT and at AKT2 was > 500 nM in each case.

As to `COc1cc(CCNCc2ccc(-n3c(-c4cccnc4N)nc4ccc(-c5ccccc5)nc43)cc2)ccc1C=O` [Compound 97, 4-{2-[({4-[2-(2-aminopyridin-3-yl)-5-phenylimidazo[4,5-b]pyridin-3-yl]phenyl}methyl)amino]ethyl}-2-methoxybenzaldehyde], the “AKT1 E17K IC50: Selectivity vs AKT1 WT” value at AKT1 E17K came out at 0.56. For the same molecule, the “AKT1 E17K IC50: Selectivity vs AKT2” value on AKT1 E17K is reported as 1.9. Moreover, the half-maximal inhibitory concentration (IC50) is < 100 nM against AKT1 E17K, < 100 nM at AKT1 WT and 100 to 500 nM against AKT2.

In the case of `CC(=O)Nc1cc(CCNCc2ccc(-n3c(-c4cccnc4N)nc4cccnc43)cc2)ccc1C=O` [Compound 98, N-(5-{2-[({4-[2-(2-aminopyridin-3-yl)imidazo[4,5-b]pyridin-3-yl]phenyl}methyl)amino]ethyl}-2-formylphenyl)acetamide], the “AKT1 E17K IC50: Selectivity vs AKT1 WT” value on AKT1 E17K turned out to be 2.5. The “AKT1 E17K IC50: Selectivity vs AKT2” value at AKT1 E17K came to 38. The IC50 was < 100 nM on AKT1 E17K, < 100 nM at AKT1 WT and > 500 nM at AKT2.

Turning to `Nc1ncccc1-c1nc2ccc(Cl)nc2n1-c1ccc(CNCCc2ccc(C=O)c(O)c2)cc1` [Compound 99, 4-{2-[({4-[2-(2-aminopyridin-3-yl)-5-chloroimidazo[4,5-b]pyridin-3-yl]phenyl}methyl)amino]ethyl}-2-hydroxybenzaldehyde], at AKT1 E17K, the “AKT1 E17K IC50: Selectivity vs AKT1 WT” value is 3.7, the “AKT1 E17K IC50: Selectivity vs AKT2” value came to 8.4 and the IC50 is < 100 nM. In addition, the IC50 against AKT1 WT was in the range of 100 to 500 nM. Besides, the half-maximal inhibitory concentration (IC50) against AKT2 was > 500 nM.
